Like-named read-outs stand apart in the source and are kept apart here. *1 amine or outer side, *2 acyl side, *3 side chain or, on linkers, in order; H or OH if unused. Where a SMILES comes first, the peptide text is derived from it. Bridges are numbered along the chain shown (N, C = ends). [ ]: non-standard residue; d: D form. The star is where a group is joined. X61 = Cc1nc2c(F)cc(-c3ccc(Cl)cc3C[C@@H](C(=O)[*:2])N(C)[*:1])cc2n1C(C)C; X113 = Cc1cc(-c2ccc(Cl)cc2C[C@@H](C(=O)[*:2])N(C)[*:1])n(C)n1; X19 = CN([C@@H](Cc1cc(Cl)ccc1-c1ccn2ccnc2c1)C(=O)[*:2])[*:1]; X83 = CN([C@@H](Cc1cc(Cl)ccc1-c1cnn2c1COCC2)C(=O)[*:2])[*:1]; NMe3Pal(2-OiBu,5-Cl) = CN[C@@H](Cc1cc(Cl)cnc1OCC(C)C)C(=O)O; NMehhhLys(Me) = CN([C@@H](CCCCCCCN(C)[*:3])C(=O)[*:2])[*:1]; X2 = CN([C@@H](Cc1cc(Cl)ccc1-c1ccc2ncnn2c1)C(=O)[*:2])[*:1]; X67 = Cc1c(-c2ccc(Cl)cc2C[C@@H](C(=O)[*:2])N(C)[*:1])cnn1C; Oxane2carbonyl(2R-CF3) = O=C([C@@]1(C(F)(F)F)CCCCO1)*; Cyclobutanecarbonyl(1-CF3) = O=C(C1(C(F)(F)F)CCC1)*; cBuCO(3,3-F2-1-CF3) = O=C(C1(C(F)(F)F)CC(F)(F)C1)*; X25 = CCOc1ncc(Cl)cc1C[C@@H](C(=O)[*:2])N(C)[*:1]; Pro(trans-4-F) = O=C(O)[C@@H]1C[C@@H](F)CN1; Gly(cPr) = N[C@H](C(=O)O)C1CC1
What was measured:
CyclinB1/CDK1 = molecular target: T1, CyclinB1/CDK1 (Homo sapiens, UniProt P14635); experiment: Fluorescence Polarization (FP) competitive binding assay, Cyclin B1/Cdk1;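 further: fluorescence polarization read after equilibration at room temperature, with IC50 taken from serially diluted dose-response curves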
T1 construct: purchased Eurofins, discovery 14-450

CyclinA2/CDK2 = molecular target: T2, CyclinA2/CDK2 (Homo sapiens, UniProt P20248); experiment: Fluorescence Polarization (FP) competitive binding assay, Cyclin A2/Cdk2;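 further: plates equilibrated two hours at room temperature before polarization reading, IC50 fitted from eight-concentration compound titration curves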
T2 construct: purchased CRELUX Protein Services

CyclinE1/CDK2 = molecular target: T3, CyclinE1/CDK2 (Homo sapiens, UniProt P24864); experiment: Fluorescence Polarization (FP) competitive binding assay, Cyclin E1/Cdk2;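 further: readings taken after two-hour equilibration at room temperature in HEPES buffer with NaCl, DTT, NP-40 and BSA, IC50 fitted from eight-concentration serial dilution series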
T3 construct: purchased Eurofins, discovery 14-475

WI-38 cells = experiment: MTT proliferation assay, WI-38; type: cell-based; settings: 3 days compound exposure, 1:3 serial dilution starting at 10 μM;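 further: Eight- or ten-point dilution series, with exposure length chosen to span about three to four cell doublings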
OVCAR3 cells = experiment: MTT proliferation assay, OVCAR3; type: cell-based; settings: 5 days compound exposure, 1:3 serial dilution starting at 10 μM;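 further: compound given as an 8- or 10-point series, one day after plating, with exposure covering roughly 3-4 cell doublings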
NCI-H1048 cells = experiment: MTT proliferation assay, NCI-H1048; type: cell-based; settings: 5 days compound exposure, 1:3 serial dilution starting at 10 μM;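 further: Dose-response in 96-well plates over 8 or 10 concentration points, with exposure spanning 3-4 cell doublings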
[1] = read-out: Cyclin B FP IC50; 10 nM Cyclin B1/Cdk1, 2 nM FAM probe; average of 2-3 independent experiments

Compound	IC50 (CyclinB1/CDK1; [1]) [nM]	IC50 (CyclinA2/CDK2; read-out: Cyclin A FP IC50, 8 nM Cyclin A2/Cdk2, 2 nM FAM probe, average of 2-3 independent experiments) [nM]	IC50 (CyclinE1/CDK2) [nM]	GI50 (WI-38 cells) [nM]	GI50 (OVCAR3 cells) [nM]	GI50 (NCI-H1048 cells) [nM]	IC50 (CyclinA2/CDK2) [nM]	IC50 (CyclinB1/CDK1; 10 nM Cyclin B1/Cdk1, 2 nM FAM probe; average of 2-3 independent experiments; read-out: Cyclin B FP IC50) [nM]	IC50 (CyclinA2/CDK2; 8 nM Cyclin A2/Cdk2, 2 nM FAM probe, average of 2-3 independent experiments, read-out: Cyclin A FP IC50) [nM]	IC50 (CyclinE1/CDK2; 10 nM Cyclin E1/Cdk2, 2 nM FAM probe, average of 2-3 independent experiments, read-out: Cyclin E FP IC50) [nM]
CCOc1ncc(Cl)cc1C[C@H]1C(=O)N(C)CCCCCCC[C@H](N(C)C(=O)[C@@H](NC(=O)[C@@H]2C[C@@H](F)CN2C(=O)[C@@]2(C(F)(F)F)CCCCO2)C2CC2)C(=O)N[C@@H](CC(C)C)C(=O)N1C [Example 226] ({Oxane2carbonyl(2R-CF3)}-[Pro(trans-4-F)][Gly(cPr)][NMehhhLys(Me)]L[X25]; lactam 3-C)	20	20	100	8390	30	20				
CCOc1ncc(Cl)cc1C[C@H]1C(=O)N(C)CCCCCCC[C@H](N(C)C(=O)[C@@H](NC(=O)[C@@H]2C[C@@H](F)CN2C(=O)C2(C(F)(F)F)CCC2)C2CC2)C(=O)N[C@@H](CC(C)C)C(=O)N1C [Example 227] ({Cyclobutanecarbonyl(1-CF3)}-[Pro(trans-4-F)][Gly(cPr)][NMehhhLys(Me)]L[X25]; lactam 3-C)	20		120	14100	40	20	30			
CC(C)COc1ncc(Cl)cc1C[C@H]1C(=O)N(C)CCCCCCC[C@H](N(C)C(=O)[C@@H](NC(=O)[C@@H]2C[C@@H](F)CN2C(=O)C2(C(F)(F)F)CCC2)C2CC2)C(=O)N[C@@H](CC(C)C)C(=O)N1C [Example 230] ({Cyclobutanecarbonyl(1-CF3)}-[Pro(trans-4-F)][Gly(cPr)][NMehhhLys(Me)]L[NMe3Pal(2-OiBu,5-Cl)]; lactam 3-C)	20		140	5050	90	40	30			
Cc1nc2c(F)cc(-c3ccc(Cl)cc3C[C@H]3C(=O)N(C)CCCCCCC[C@H](N(C)C(=O)[C@@H](NC(=O)[C@@H]4C[C@@H](F)CN4C(=O)C4(C(F)(F)F)CC(F)(F)C4)C4CC4)C(=O)N[C@@H](CC(C)C)C(=O)N3C)cc2n1C(C)C [Example 231] ({cBuCO(3,3-F2-1-CF3)}-[Pro(trans-4-F)][Gly(cPr)][NMehhhLys(Me)]L[X61]; lactam 3-C)	20		2940	13400	40	20	60			
CC(C)C[C@@H]1NC(=O)[C@@H](N(C)C(=O)[C@@H](NC(=O)[C@@H]2C[C@@H](F)CN2C(=O)C2(C(F)(F)F)CC(F)(F)C2)C2CC2)CCCCCCCN(C)C(=O)[C@H](Cc2cc(Cl)ccc2-c2ccc3ncnn3c2)N(C)C1=O [Example 232] ({cBuCO(3,3-F2-1-CF3)}-[Pro(trans-4-F)][Gly(cPr)][NMehhhLys(Me)]L[X2]; lactam 3-C)	20		2870	11600	80	50	50			
CC(C)C[C@@H]1NC(=O)[C@@H](N(C)C(=O)[C@@H](NC(=O)[C@@H]2C[C@@H](F)CN2C(=O)C2(C(F)(F)F)CC(F)(F)C2)C2CC2)CCCCCCCN(C)C(=O)[C@H](Cc2cc(Cl)ccc2-c2cnn3c2COCC3)N(C)C1=O [Example 233] ({cBuCO(3,3-F2-1-CF3)}-[Pro(trans-4-F)][Gly(cPr)][NMehhhLys(Me)]L[X83]; lactam 3-C)	20		1600	15200	30	30	50			
Cc1c(-c2ccc(Cl)cc2C[C@H]2C(=O)N(C)CCCCCCC[C@H](N(C)C(=O)[C@@H](NC(=O)[C@@H]3C[C@@H](F)CN3C(=O)C3(C(F)(F)F)CC(F)(F)C3)C3CC3)C(=O)N[C@@H](CC(C)C)C(=O)N2C)cnn1C [Example 234] ({cBuCO(3,3-F2-1-CF3)}-[Pro(trans-4-F)][Gly(cPr)][NMehhhLys(Me)]L[X67]; lactam 3-C)	20		830	10700	10	10	30			
Cc1cc(-c2ccc(Cl)cc2C[C@H]2C(=O)N(C)CCCCCCC[C@H](N(C)C(=O)[C@@H](NC(=O)[C@@H]3C[C@@H](F)CN3C(=O)C3(C(F)(F)F)CC(F)(F)C3)C3CC3)C(=O)N[C@@H](CC(C)C)C(=O)N2C)n(C)n1 [Example 235] ({cBuCO(3,3-F2-1-CF3)}-[Pro(trans-4-F)][Gly(cPr)][NMehhhLys(Me)]L[X113]; lactam 3-C)	20		6080	13200	90	100	140			
CC(C)C[C@@H]1NC(=O)[C@@H](N(C)C(=O)[C@@H](NC(=O)[C@@H]2C[C@@H](F)CN2C(=O)C2(C(F)(F)F)CC(F)(F)C2)C2CC2)CCCCCCCN(C)C(=O)[C@H](Cc2cc(Cl)ccc2-c2ccn3ccnc3c2)N(C)C1=O [Example 236] ({cBuCO(3,3-F2-1-CF3)}-[Pro(trans-4-F)][Gly(cPr)][NMehhhLys(Me)]L[X19]; lactam 3-C)				7330	20	10		20	30	780

Source: patent US20240408169A1 (priority 2023, published 2024)
